Experimental data published in the NIST ThermoML archive (doi:10.1021/acs.jced.6b00362).

Tests used:
[1] = refractive index (other wavelength) (dimensionless); xn = mol fraction of the nth substance listed; conditions: Liquid, ellipsometry
[2] = refractive index (other wavelength) (dimensionless); conditions: 101 kPa, Liquid, Wavelength=632.8 nm, ellipsometry
[3] = Crystal; DTA
[4] = refractive index (Na D-line) (dimensionless); conditions: 101.33 kPa, Liquid, ellipsometry

[Cl-].[Na+] [sodium chloride] + [Cl][Sm]([Cl])[Cl]
[1], 100 kPa, Wavelength=632.8 nm, x2 = 0
Conditions | refractive index
1083 K | 1.41
1093 K | 1.408
1103 K | 1.407
1113 K | 1.406
1123 K | 1.405
1133 K | 1.404
1153 K | 1.402
1173 K | 1.399

[Cl][Ce]([Cl])[Cl] [cerium trichloride] + [Cl-].[Na+]
refractive index, [1], 101 kPa, Wavelength=632.8 nm
Conditions | 1073 K | 1103 K | 1123 K | 1133 K | 1153 K | 1173 K | 1193 K | 1213 K | 1223 K | 1233 K
x1 = 0.25 | 1.515 | 1.51 | 1.507 | – | 1.502 | 1.5 | – | – | – | –
x1 = 0.5 | 1.595 | 1.59 | 1.587 | – | 1.582 | 1.58 | 1.578 | – | – | –
x1 = 0.75 | 1.656 | 1.651 | 1.647 | – | 1.642 | 1.639 | 1.636 | – | 1.631 | –
x1 = 1 | – | 1.697 | – | 1.691 | 1.688 | 1.685 | 1.681 | 1.678 | – | 1.674

[Cl-].[Na+] [sodium chloride] + [Cl-].[Cl-].[Cl-].[Gd+3]
[1], 100 kPa, Wavelength=632.8 nm, x2 = 0
Conditions | refractive index
1083 K | 1.41
1093 K | 1.408
1103 K | 1.407
1113 K | 1.406
1123 K | 1.405
1133 K | 1.404
1153 K | 1.402
1173 K | 1.399

[Cl][Sm]([Cl])[Cl] [samarium chloride] + [Cl-].[K+]
refractive index, [1], 100 kPa, Wavelength=632.8 nm
Conditions | 973 K | 1003 K | 1023 K | 1073 K | 1103 K | 1123 K | 1153 K | 1173 K | 1203 K
x1 = 0.25 | – | – | – | 1.478 | 1.47 | 1.466 | – | 1.458 | 1.45
x1 = 0.5 | 1.588 | 1.582 | 1.577 | 1.56 | 1.551 | 1.54 | – | 1.525 | 1.52
x1 = 0.75 | 1.66 | 1.652 | 1.651 | 1.63 | 1.623 | 1.618 | – | 1.605 | 1.601
x1 = 1 | 1.712 | 1.705 | 1.701 | 1.691 | 1.684 | 1.68 | 1.674 | 1.672 | –

[Cl-].[Cl-].[Cl-].[Gd+3] [gadolinium(III) chloride] + [Cl-].[K+]
refractive index, [1], 100 kPa, Wavelength=632.8 nm
Conditions | 923 K | 973 K | 1023 K | 1073 K | 1123 K | 1173 K
x1 = 0.25 | – | – | 1.48 | 1.473 | 1.465 | 1.457
x1 = 0.5 | 1.557 | 1.551 | 1.546 | 1.54 | 1.534 | 1.529
x1 = 0.75 | 1.665 | 1.65 | 1.635 | 1.62 | 1.606 | 1.591
x1 = 1 | 1.7 | 1.685 | 1.68 | 1.675 | 1.664 | 1.662

[Cl-].[Cs+] [cesium chloride] + [Cl][Sm]([Cl])[Cl]
[1], 100 kPa, Wavelength=6328 nm, x2 = 0
Conditions | refractive index
1023 K | 1.439
1033 K | 1.438
1053 K | 1.434
1073 K | 1.43
1093 K | 1.426
1113 K | 1.423
1133 K | 1.419
1153 K | 1.415
1173 K | 1.411

[Cl-].[K+] [potassium chloride] + [Cl-].[Cl-].[Cl-].[Gd+3]
[1], 100 kPa, Wavelength=632.8 nm, x2 = 0
Conditions | refractive index
1073 K | 1.393
1093 K | 1.39
1103 K | 1.388
1113 K | 1.386
1123 K | 1.385
1133 K | 1.383
1153 K | 1.38
1173 K | 1.377
1193 K | 1.374

[Cl][Ce]([Cl])[Cl] [cerium trichloride] + [Cl-].[Cs+]
refractive index, [1], 100 kPa, Wavelength=632.8 nm
Conditions | x1 = 0.25 | x1 = 0.5 | x1 = 0.75 | x1 = 1
1073 K | 1.495 | 1.553 | 1.627 | –
1103 K | 1.49 | 1.549 | 1.623 | 1.697
1123 K | 1.487 | 1.545 | 1.619 | –
1133 K | – | – | – | 1.691
1153 K | 1.482 | 1.54 | 1.614 | 1.688
1173 K | 1.479 | 1.537 | 1.61 | 1.685
1193 K | – | – | – | 1.681
1203 K | – | 1.532 | – | –
1213 K | – | 1.53 | – | 1.678
1223 K | – | – | 1.601 | –
1233 K | – | – | – | 1.674

[Cl][Sm]([Cl])[Cl] [samarium chloride] + [Cl-].[Na+]
refractive index, [1], 100 kPa, Wavelength=632.8 nm
Conditions | 973 K | 1003 K | 1023 K | 1073 K | 1103 K | 1123 K | 1153 K | 1173 K | 1193 K
x1 = 0.25 | 1.536 | 1.53 | 1.526 | 1.518 | 1.513 | 1.51 | – | 1.503 | 1.499
x1 = 0.5 | 1.613 | 1.609 | 1.602 | 1.583 | 1.582 | 1.58 | – | 1.569 | –
x1 = 0.75 | 1.672 | 1.665 | 1.662 | 1.653 | 1.648 | 1.64 | – | 1.629 | –
x1 = 1 | 1.712 | 1.705 | 1.701 | 1.691 | 1.684 | 1.68 | 1.674 | 1.672 | –

[Cl-].[Na+] [sodium chloride]
[2]
Conditions | refractive index
1083 K | 1.41
1093 K | 1.408
1103 K | 1.407
1113 K | 1.406
1123 K | 1.405
1133 K | 1.404
1153 K | 1.402
1173 K | 1.399

[Cl][Nd]([Cl])[Cl] [neodymium(III) chloride]
Conditions | Normal melting temperature [°C]
[3] | 760

[2]
Conditions | refractive index
1053 K | 1.704
1073 K | 1.701
1093 K | 1.698
1113 K | 1.695
1133 K | 1.692
1153 K | 1.689
1173 K | 1.686
1193 K | 1.683
1213 K | 1.68

[Cl-].[Cl-].[Cl-].[Gd+3] [gadolinium(III) chloride]
Conditions | Normal melting temperature [°C]
[3] | 602

refractive index
Conditions | 923 K | 973 K | 1023 K | 1073 K | 1123 K | 1173 K
[2] | 1.7 | 1.685 | 1.68 | 1.675 | 1.664 | 1.662
[4] | 1.7 | 1.685 | 1.68 | 1.675 | 1.664 | 1.662
